Results on 10 molecules are retold here after ChEMBL document CHEMBL1201862, “PubChem BioAssay data set” (2004).

Among the test systems are A498; A549; DU-145; EKVX; HCC 2998; HCT-116; HOP-92; HT-29; MDA-MB-435; NCI-H226; NCI-H23; NCI-H460; NCI-H522; OVCAR-3; OVCAR-8; RPMI-8226; RXF 393; SF-539; SK-MEL-5; SNB-75.
What all share (assay): growth of human tumour cells (NCI), 48 h

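These data come from cells grown in 96-well plates and exposed to compound for 48 hours at five concentrations. The concentration for 50% growth inhibition is given as GI50.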 The source made the active and inactive calls. No stated cut-off is given here; in the data, active = GI50 up to about 1.1 µM and inactive = higher.

In the case of `C=C(Cl)[C@](Cl)(CBr)CC[C@@H](Br)C(C)(C)Cl` [HALOMON], the GI50 is 1.97 µM (inactive) in the experiment on A498; 2.12 µM (inactive) in the experiment on A549; 1.1 µM (active) with DU-145; 3.64 µM (inactive) in the experiment with EKVX; 1.5 µM (inactive) in the experiment on HCC 2998; 0.392 µM (active) in the experiment on HCT-116. The GI50 in the experiment on HOP-92 was 0.378 µM (active); in the experiment with HT-29, 0.783 µM (active); in the experiment with MDA-MB-435 it was 1.59 µM (inactive); in the experiment with NCI-H226 it was 17 µM (inactive); in the experiment on NCI-H23, 11.4 µM (inactive); with NCI-H460 it was 0.955 µM (active). For the same molecule, the GI50 in the experiment with NCI-H522 is 15.5 µM (inactive); in the experiment on OVCAR-3 it was 0.791 µM (active); in the experiment on OVCAR-8 it was 1.27 µM (inactive); with RPMI-8226 it was 0.0607 µM (active); with RXF 393, 0.121 µM (active); in the experiment with SF-539, 0.562 µM (active). Also, the GI50 in the experiment on SK-MEL-5 was 12.3 µM (inactive); in the experiment on SNB-75 it was 0.449 µM (active).
On to `CCOP(=O)(OCC)C(c1ccc(F)cc1)N(C(=O)NC(F)(F)F)c1cccc(C(F)(F)F)c1` (centres undefined), for which the GI50 is > 100 µM (inactive) in the experiment on A498; 82.2 µM (inactive) with A549; > 100 µM (inactive) with DU-145; > 100 µM (inactive) with EKVX; > 100 µM (inactive) in the experiment with HCC 2998; 84.3 µM (inactive) with HCT-116. For the same molecule, the GI50 with HOP-92 is 33.2 µM (inactive); with HT-29, 86.9 µM (inactive); in the experiment with MDA-MB-435, > 100 µM (inactive); with NCI-H226, > 100 µM (inactive); in the experiment with NCI-H23, > 100 µM (inactive); with NCI-H460 it was 91.4 µM (inactive). The GI50 in the experiment on NCI-H522 was 67.8 µM (inactive); in the experiment on OVCAR-3, > 100 µM (inactive); with OVCAR-8, > 100 µM (inactive); with RPMI-8226 it was 63 µM (inactive); with RXF 393 it was 52.8 µM (inactive); with SF-539, > 100 µM (inactive). Also, the GI50 with SK-MEL-5 is > 100 µM (inactive); in the experiment with SNB-75, 46.9 µM (inactive).
On to `CC(C)(C)C1=C(Br)C(F)(C(C)(C)C)OP1(=O)c1ccccc1` (centres undefined), for which the GI50 in the experiment on A498 is 24.8 µM (inactive); in the experiment on A549, 19.3 µM (inactive); in the experiment on DU-145 it was 18 µM (inactive); with EKVX, 19.3 µM (inactive); in the experiment with HCC 2998, 13.8 µM (inactive); in the experiment with HCT-116, 16.7 µM (inactive). The GI50 is 18.7 µM (inactive) with HOP-92; 19 µM (inactive) in the experiment on HT-29; 16.1 µM (inactive) in the experiment on MDA-MB-435; 15.1 µM (inactive) in the experiment on NCI-H226; 19.5 µM (inactive) in the experiment with NCI-H23; 19.1 µM (inactive) in the experiment on NCI-H460. In addition, the GI50 in the experiment with NCI-H522 is 15.7 µM (inactive); in the experiment on OVCAR-3, 15.5 µM (inactive); with OVCAR-8, 21.6 µM (inactive); in the experiment with RPMI-8226, < 0.01 µM (active); in the experiment with RXF 393, 11.1 µM (inactive); in the experiment on SF-539 it was 19.1 µM (inactive). Also, the figures for the GI50 with SK-MEL-5 and in the experiment with SNB-75 were 11 µM (inactive) and 17 µM (inactive), respectively.
Turning to `CC(=O)/C(=C\NC(N)=S)C(=O)Nc1ccccc1C`, the GI50 with A498, in the experiment on A549, in the experiment with DU-145, with EKVX, with HCC 2998 and with HCT-116 was > 100 µM (inactive) throughout. Moreover, the GI50 in the experiment on HOP-92, in the experiment on HT-29, in the experiment on MDA-MB-435, in the experiment on NCI-H226, with NCI-H23 and with NCI-H460 was > 100 µM (inactive) throughout. Further, the GI50 with NCI-H522, in the experiment with OVCAR-3, in the experiment on OVCAR-8, in the experiment with RPMI-8226, in the experiment on RXF 393 and with SF-539 was > 100 µM (inactive) throughout. Also, the GI50 with SK-MEL-5 and in the experiment on SNB-75 was > 100 µM (inactive) each time.
`[N-]=[N+]=CC(=O)OC1Cc2ccccc2C1`: the GI50 with A498 is > 100 µM (inactive); in the experiment with A549 it was 84.3 µM (inactive); with DU-145, 21.1 µM (inactive); with EKVX, > 100 µM (inactive); in the experiment with HCC 2998, > 100 µM (inactive); in the experiment on HCT-116, > 100 µM (inactive). In addition, the GI50 was 69.7 µM (inactive) with HOP-92; > 100 µM (inactive) in the experiment on HT-29; > 100 µM (inactive) in the experiment with MDA-MB-435; > 93.3 µM (inactive) with NCI-H226; > 100 µM (inactive) in the experiment with NCI-H23; > 100 µM (inactive) with NCI-H460. Further, the GI50 in the experiment with NCI-H522 was > 71 µM (inactive); in the experiment on OVCAR-3, > 100 µM (inactive); in the experiment with OVCAR-8, > 100 µM (inactive); with RPMI-8226, > 100 µM (inactive); with RXF 393 it was > 42.6 µM (inactive); in the experiment on SF-539, > 100 µM (inactive). The GI50 in the experiment on SK-MEL-5 is > 56.6 µM (inactive); in the experiment on SNB-75, 50.4 µM (inactive).
In the case of `[N-]=[N+]=Nc1ccccc1C(=O)N1C(=O)c2ccccc2C(=O)N(C(=O)c2ccccc2N=[N+]=[N-])c2ccccc21`, the GI50 in the experiment with A498 is 42.2 µM (inactive); with A549, 37.1 µM (inactive); in the experiment with DU-145, > 100 µM (inactive); in the experiment on EKVX it was > 100 µM (inactive); with HCC 2998, > 100 µM (inactive); in the experiment with HCT-116, 35 µM (inactive). The GI50 in the experiment with HOP-92 is 23.1 µM (inactive); with HT-29, 98.6 µM (inactive); in the experiment with MDA-MB-435 it was 43.5 µM (inactive); with NCI-H226 it was > 100 µM (inactive); with NCI-H23, 86.5 µM (inactive); in the experiment with NCI-H460, 66.7 µM (inactive). Besides, the GI50 is 30.5 µM (inactive) in the experiment with NCI-H522; 37.7 µM (inactive) in the experiment on OVCAR-3; 97.3 µM (inactive) in the experiment with OVCAR-8; 36.8 µM (inactive) in the experiment with RPMI-8226; 27.4 µM (inactive) with RXF 393; 43.7 µM (inactive) in the experiment on SF-539. The GI50 in the experiment with SK-MEL-5 is 47.2 µM (inactive); with SNB-75, 21.4 µM (inactive).
Turning to `CS(=O)(=O)O[C@H]1[C@H](O)c2ccccc2[C@@H]1N=[N+]=[N-]`, the GI50 in the experiment on A498, in the experiment on A549, in the experiment with DU-145, with EKVX, with HCC 2998 and in the experiment with HCT-116 was > 100 µM (inactive) each time. Moreover, the GI50 in the experiment with HOP-92, in the experiment on HT-29, with MDA-MB-435, in the experiment on NCI-H226, with NCI-H23 and in the experiment on NCI-H460 was > 100 µM (inactive) throughout. Also, the GI50 in the experiment with NCI-H522, with OVCAR-3, in the experiment on OVCAR-8, in the experiment on RPMI-8226, with RXF 393 and with SF-539 was > 100 µM (inactive) in each case. Moreover, the GI50 in the experiment on SK-MEL-5 is > 100 µM (inactive); in the experiment with SNB-75, 21.4 µM (inactive).
For the molecule `COC(=O)c1cc2c(c3c1CC(Cc1ccccc1)C3=O)CCC2` (centres undefined), the GI50 in the experiment on A498 was > 100 µM (inactive); with A549, 53.6 µM (inactive); in the experiment with DU-145, 61.4 µM (inactive); in the experiment with EKVX, > 100 µM (inactive); in the experiment on HCC 2998, 36.7 µM (inactive); with HCT-116 it was > 100 µM (inactive). The GI50 with HOP-92 was 25.1 µM (inactive); with HT-29, 74.1 µM (inactive); with MDA-MB-435, 52.6 µM (inactive); in the experiment on NCI-H226, > 100 µM (inactive); in the experiment with NCI-H23 it was 64.4 µM (inactive); in the experiment with NCI-H460, 71.1 µM (inactive). Besides, the GI50 was 68.4 µM (inactive) in the experiment with NCI-H522; > 100 µM (inactive) in the experiment on OVCAR-3; 95.3 µM (inactive) in the experiment with OVCAR-8; 59.8 µM (inactive) in the experiment on RPMI-8226; 90.2 µM (inactive) in the experiment on RXF 393; > 100 µM (inactive) in the experiment on SF-539. Moreover, the GI50 in the experiment with SK-MEL-5 is 64.4 µM (inactive); in the experiment with SNB-75, 40.9 µM (inactive).
Regarding `Cc1nc2ccccc2c(=O)n1NC(=O)c1ccc([N+](=O)[O-])cc1`, the GI50 is 56.4 µM (inactive) with A498; > 100 µM (inactive) in the experiment on A549; > 100 µM (inactive) in the experiment with DU-145; > 100 µM (inactive) in the experiment with EKVX; > 100 µM (inactive) in the experiment with HCC 2998; > 100 µM (inactive) with HCT-116. The GI50 in the experiment with HOP-92, with HT-29, in the experiment on MDA-MB-435, with NCI-H226, with NCI-H23 and with NCI-H460 was > 100 µM (inactive) in each case. Also, the GI50 with NCI-H522, with OVCAR-3, in the experiment on OVCAR-8, with RPMI-8226, in the experiment with RXF 393 and in the experiment with SF-539 was > 100 µM (inactive) in each case. Also, the GI50 with SK-MEL-5 and in the experiment with SNB-75 was > 100 µM (inactive) in each case.
`CC(=O)C1C(=O)C(C(C)=O)C2C3C=CC(C3)C12` (centres undefined): the GI50 in the experiment with A498, in the experiment with A549, with DU-145, with HCC 2998, with HCT-116 and with HOP-92 was > 100 µM (inactive) throughout. Also, the GI50 in the experiment with HT-29, in the experiment on MDA-MB-435, with NCI-H226, with NCI-H23, with NCI-H460 and in the experiment with NCI-H522 was > 100 µM (inactive) in each case. Moreover, the GI50 in the experiment on OVCAR-3, in the experiment on OVCAR-8, in the experiment on RPMI-8226, in the experiment with RXF 393, in the experiment with SF-539 and in the experiment on SK-MEL-5 was > 100 µM (inactive) each time. In addition, in the experiment with SNB-75, the GI50 is > 100 µM (inactive).
